Here are results for six compounds from BindingDB's records for doi:10.1016/S0960-894X(01)80380-2 (1994).

The test is described as follows: Inhibition of ADP-mediated platelet aggregation in human gel-filtered platelets.

By IC50 is commonly meant the concentration at which inhibition is half-maximal. Higher therefore signals weaker potency.

With `O=C(O)CCNC(=O)c1ccnc(C(=O)NCCC2CCNCC2)c1` [3-{[2-(2-Piperidin-4-yl-ethylcarbamoyl)-pyridine-4-carbonyl]-amino}-propionic acid], half-maximal inhibition (IC50) required 1600 nM.
To `O=C(O)CCNC(=O)c1cc(C(=O)NCCC2CCNCC2)ccn1` [3-{[4-(2-Piperidin-4-yl-ethylcarbamoyl)-pyridine-2-carbonyl]-amino}-propionic acid] belongs 1100 nM.
The result for `O=C(O)CCN1Cc2ccc(C(=O)NCCC3CCNCC3)cc2C1=O` [3-[1-Oxo-6-(2-piperidin-4-yl-ethylcarbamoyl)-1,3-dihydro-isoindol-2-yl]-propionic acid] reads 10000 nM.
To `O=C(O)CCNC(=O)c1cccc(C(=O)NCCC2CCNCC2)c1` [3-[3-(2-Piperidin-4-yl-ethylcarbamoyl)-benzoylamino]-propionic acid] belongs 530 nM; to `O=C(O)CCNC(=O)c1cccc(C(=O)NCCC2CCNCC2)n1` [3-{[6-(2-Piperidin-4-yl-ethylcarbamoyl)-pyridine-2-carbonyl]-amino}-propionic acid], 300000 nM.
Compound `O=C(O)CCNC(=O)c1cncc(C(=O)NCCC2CCNCC2)c1` [3-{[5-(2-Piperidin-4-yl-ethylcarbamoyl)-pyridine-3-carbonyl]-amino}-propionic acid] showed an IC50 of 2000 nM.
